The numbers were not newly measured in patent US20200093804A1, “PHARMACEUTICAL COMPOSITION OF EVEROLIMUS” (INTAS PHARMACEUTICALS LTD., priority 2017, published 2020), which cites them from elsewhere.

Each structure is given as a SMILES string.

The conditions of this data set: from literature.

Consider `CO[C@H]1C[C@@H]2CC[C@@H](C)[C@@](O)(O2)C(=O)C(=O)N2CCCC[C@H]2C(=O)O[C@H]([C@H](C)C[C@@H]2CC[C@@H](OCCO)[C@H](OC)C2)CC(=O)[C@H](C)/C=C(\C)[C@@H](O)[C@@H](OC)C(=O)[C@H](C)C[C@H](C)/C=C/C=C/C=C/1C` [Everolimus, (1R,9S,12S,15R,16E,18R,19R,21R,23S,24E,26E,28E,30S,32S,35R)-1,18dihydroxy-12-{(1R)-2-[(1S,3R,4R)-4-(2-hydroxyethoxy)-3-methoxycyclohexyl]-1-methylethyl}-19,30-dimethoxy15,17,21,23,29,35-hexamethyl-11, 36-dioxa-4-aza-tricyclo[30.3.1.04,9]hexatriaconta-16,24,26,28-tetraene-2,3,10, 14,20pentaone], for which the solubility entry is listed as “poor” and the stability entry is listed as “poor”.
